Experimental data reported in patent publication US20240410877A1, “SYSTEMS AND METHODS FOR MIXED MULTIPLE CELL LINE SCREENING USING ENDOGENOUS SINGLE NUCLEOTIDE POLYMORPHISM (SNP)-BASED CELL LINE IDENTIFICATION” (University of Kentucky Research Foundation, priority 2023, published 2024).

Key:
Type in all cases: cell-based, human
[1] = system: SNU475; assay: Cell proliferation assay of single cell line; settings: SNU475, 1 μM, 30 h
Procedure: (§1) The liver cancer cell lines, Huh7, C3A, PLC/PRF/5, SNU449, SNU475 and SK-Hep1, were purchased from the American Type Culture Collection (ATCC). The cells were cultured in DMEM (ATCC®30-2002) containing 10% (v/v) Fetal Bovine Serum (FBS) (Sigma F0926) and grown in an incubator at 37° C. with 5% CO2. The halogenated diarylacetylene, 4-((2,6-difluorophenyl) ethynyl)-N,N-dimethylaniline (DEDA), was synthesized and characterized as previously described.^18,19
(§2) For proliferation assays of single cell line, cells were seeded in 12-well plates (2×10^5 cells per well) and incubated overnight. The following day, DEDA (1 μM solution in DMSO) was added to each well with DMSO alone as a control. Each experiment was performed in quadruplicate. After 30 h, cells were analyzed under a reverse microscope. Cell viability and number were analyzed using the Vi-Cell XR Cell Viability Analyzer (Beckman Coulter).

[2] = system: Huh7; assay: Cell proliferation assay of single cell line; settings: Huh7, 1 μM, 30 h
Procedure: as §1, §2

[3] = system: SK-Hep1; assay: Cell proliferation assay of single cell line; settings: SK-Hep1, 1 μM, 30 h
Procedure: as §1, §2

[4] = system: PLC/PRF/5; assay: Cell proliferation assay of single cell line; settings: PLC/PRF/5, 1 μM, 30 h
Procedure: as §1, §2

[5] = system: SNU449; assay: Cell proliferation assay of single cell line; settings: SNU449, 1 μM, 30 h
Procedure: as §1, §2

[6] = system: C3A; assay: Cell proliferation assay of single cell line; settings: 1 μM, 30 h
Procedure: as §1, §2

[7] = system: c-Myc; assay: Western blot of c-Myc expression in liver cancer cells; settings: C3A cells, 1 μM DEDA vs DMSO
Procedure: Cells were grown in six-well plates and lysed in 0.5 mL/well lysis buffer (50 mM HEPES, 100 mM NaCl, 2 mM EDTA, 1% glycerol, 50 mM NaF, 1 mM Na3VO4, 1% Triton X-100, with protease inhibitors). Cell lysates were separated by a 10% SDS-PAGE gel and transferred to an Immobilon PVDF membrane. The protein levels of c-Myc and GAPDH (loading control) were analyzed using antibodies that recognize c-Myc (Epitomics, #1472-1) and GAPDH (GeneTex, #627408).

## CN(C)c1ccc(C#Cc2c(F)cccc2F)cc1 [DEDA, 4-((2,6-difluorophenyl)ethynyl)-N,N-dimethylaniline]
[1]
  sensitivity in cell proliferation assay: resistant
[2]
  sensitivity in cell proliferation assay: DEDA-sensitive
[3]
  sensitivity in cell proliferation assay: resistant
[4]
  sensitivity in cell proliferation assay: resistant
[5]
  sensitivity in cell proliferation assay: resistant
[6]
  sensitivity in cell proliferation assay: DEDA-sensitive
[7]
  c-Myc expression: inhibited c-Myc expression
